IC50 data for 20 compounds are collected here from patent publication US9096598B2 (Merck Sharp & Dohme Corp., priority 2011, dated 2015).

The term IC50 denotes the concentration that gives 50% inhibition.

Structures are written as SMILES.

One test addresses T1, JAK3 (Homo sapiens, UniProt P52333).
T1 construct: recombinant purified GST-tagged catalytic domain for each enzyme; purchased Invitrogen M4290
As to the kind of experiment: Jak Biochemical HTRF Assay (JAK3). The settings on record: recombinant purified GST-tagged catalytic domain, [ATP] 2.9 μM, values given as range classes. As for the experimental part: (§1) Jak Biochemical HTRF Assay Protocol
(§2) The ability of compounds to inhibit the activity of JAK1, JAK2, JAK3, and Tyk2 was measured using a recombinant purified GST-tagged catalytic domain for each enzyme (Invitrogen JAK1 #M4290, JAK2 #M4290, JAK3 #M4290, Tyk2 #M4290) in an HTRF format biochemical assay. The reactions employed a common peptide substrate, LCB-EQEDEPEGDYFEWLW-NH2 (in-house). The basic assay protocol is as follows: First, 250 nL of diluted compounds in DMSO were dispensed into the wells of a dry 384-well Black plate (Greiner #781076) using a Labcyte Echo 555 acoustic dispenser. Subsequent reagent additions employed an Agilent Bravo. Next, 18 μL of 1.11× enzyme and 1.11× substrate in 1× assay buffer (Invitrogen kinase buffer #PV3189, 2 mM DTT, 0.05% BSA) were added to the wells and shaken and then preincubated for 30 minutes at room temperature to allow compound binding to equilibrate. After equilibration, 2 μL of 10×ATP in 1× assay buffer was added to initiate the kinase reaction and the plates were shaken and then incubated at room temperature for 120 minutes. At the end of the incubation, 20 μL of 2× stop buffer (streptavidin-Dylight 650 (Thermo #84547B/100 mL), Eu-tagged pY20 antibody (Perkin Elmer #AD0067), EDTA, HEPES, and Triton) was added to quench the reaction. Plates were shaken and centrifuged and then incubated 60 minutes at room temperature and then read on a Perkin Elmer Envision (λex=337 nm, λem=665 and 615 nm, TRF delay time=20 μs). HTRF signal=10,000*665 nm reading/615 nm reading. After normalization to untreated controls, the percent inhibition of the HTRF signal at each compound concentration was calculated. The plot of percent inhibition versus the log of compound concentration was fit with a 4-parameter dose response equation to calculate IC50 values.
(§3) Final reaction conditions were:
(§4) Examples of the instant invention were evaluated in JAK2 and JAK3 in vitro binding assays. Table 13 tabulates the biological data disclosed for the instant invention as a range of JAK2 and JAK3 IC50 values (A: IC50≦10 nM; B: 10 nM>IC50≦500 nM C: IC50>500 nM).
For orientation: TR-FRET usually uses a lanthanide donor and a delayed reading to cut background.

The next test concerns the target T2, JAK2 (Homo sapiens, UniProt O60674).
T2 construct: recombinant purified GST-tagged catalytic domain for each enzyme; purchased Invitrogen M4290
Description: Jak Biochemical HTRF Assay (JAK2). Particulars: recombinant purified GST-tagged catalytic domain, [ATP] 8.5 μM, values given as range classes. On the procedure:
as §1, §2, §3, §4

T1 sequence (P52333 822-1111 limits assumed): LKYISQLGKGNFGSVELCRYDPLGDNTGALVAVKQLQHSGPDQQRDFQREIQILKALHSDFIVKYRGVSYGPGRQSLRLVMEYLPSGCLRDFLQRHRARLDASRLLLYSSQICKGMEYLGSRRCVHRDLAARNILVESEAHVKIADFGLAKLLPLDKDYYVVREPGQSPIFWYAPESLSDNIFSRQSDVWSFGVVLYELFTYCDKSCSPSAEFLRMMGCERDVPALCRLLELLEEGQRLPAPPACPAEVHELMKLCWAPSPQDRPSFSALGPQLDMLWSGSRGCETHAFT
T2 sequence (O60674 849-1124 limits assumed): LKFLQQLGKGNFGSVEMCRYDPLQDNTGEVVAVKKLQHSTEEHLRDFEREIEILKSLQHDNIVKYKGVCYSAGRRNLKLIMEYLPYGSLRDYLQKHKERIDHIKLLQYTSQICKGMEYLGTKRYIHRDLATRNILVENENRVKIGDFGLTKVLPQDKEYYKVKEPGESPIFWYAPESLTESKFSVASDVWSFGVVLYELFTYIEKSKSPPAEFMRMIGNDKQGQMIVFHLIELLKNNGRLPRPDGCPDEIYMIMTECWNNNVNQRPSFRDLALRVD

As to `CC1c2ncc(C(F)(F)F)n2CCN1c1cnnc(-c2c[nH]c3ncc(F)cc23)n1` (stereo not shown) [Example 1-10, 7-[3-(5-fluoro-1H-pyrrolo[2,3-b]pyridin-3-yl)-1,2,4-triazin-5-yl]-8-methyl-3-(trifluoromethyl)-5,6,7,8-tetrahydroimidazo[1,2-a]pyrazine], the IC50 at JAK3 and on JAK2 was 10 to 500 nM throughout.

Consider `Fc1cnc2[nH]cc(-c3nncc(N4CCCC4c4nccs4)n3)c2c1` (stereo not shown) [Example 1-11, 5-fluoro-3-{5-[2-(1,3-thiazol-2-yl)pyrrolidin-1-yl]-1,2,4-triazin-3-yl}-1H-pyrrolo[2,3-b]pyridine], for which the IC50 at JAK3 and at JAK2 was 10 to 500 nM in each case.

On to `N#Cc1cnc2[nH]cc(-c3nncc(N4CCCC4c4nccs4)n3)c2c1` (stereo not shown) [Example 1-12, 3-{5-[2-(1,3-thiazol-2-yl)pyrrolidin-1-yl]-1,2,4-triazin-3-yl}-1H-pyrrolo[2,3-b]pyridine-5-carbonitrile], for which the IC50 at JAK3 and at JAK2 was 10 to 500 nM in each case.

As to `CC(C)(Nc1cnnc(-c2c[nH]c3ncc(C(N)=O)cc23)n1)C(=O)NCC(F)(F)F` [Example 1-13, 3-[5-({1,1-dimethyl-2-oxo-2-[(2,2,2-trifluoroethyl)amino]ethyl}amino)-1,2,4-triazin-3-yl]-1H-pyrrolo[2,3-b]pyridine-5-carboxamide], the 50% inhibitory concentration (IC50) was ≤ 10 nM at JAK3 and 10 to 500 nM at JAK2.

As for `C[C@@H](Nc1cnnc(-c2c[nH]c3ncc(C(N)=O)cc23)n1)C(=O)NCC(F)(F)F` [Example 1-14, 3-[5-({(1R)-1-methyl-2-oxo-2-[(2,2,2-trifluoroethyl)amino]ethyl}amino)-1,2,4-triazin-3-yl]-1H-pyrrolo[2,3-b]pyridine-5-carboxamide], the IC50 at JAK3 was ≤ 10 nM; at JAK2, 10 to 500 nM.

On to `CC1c2ncc(C(F)(F)F)n2CCN1c1cnnc(-c2c[nH]c3ncc(C(N)=O)cc23)n1` (stereo not shown) [Example 1-15, 3-{5-[8-methyl-3-(trifluoromethyl)-5,6-dihydroimidazo[1,2-a]pyrazin-7(8H)-yl]-1,2,4-triazin-3-yl}-1H-pyrrolo[2,3-b]pyridine-5-carboxamide], for which the results for the IC50 at JAK3 and on JAK2 were ≤ 10 nM and 10 to 500 nM, respectively.

Consider `CC(C)[C@@H](Nc1cnnc(-c2c[nH]c3ncc(F)cc23)n1)C(=O)NCC(F)(F)F` [Example 1-16, N~2~-[3-(5-fluoro-1H-pyrrolo[2,3-b]pyridin-3-yl)-1,2,4-triazin-5-yl]-N-(2,2,2-trifluoroethyl)-D-valinamide], for which the values for the IC50 at JAK3 and at JAK2 were ≤ 10 nM and 10 to 500 nM, respectively.

Consider `CC(C)[C@@H](Nc1cnnc(-c2c[nH]c3ncc(C#N)cc23)n1)C(=O)NCC(F)(F)F` [Example 1-17, N~2~-[3-(5-cyano-1H-pyrrolo[2,3-b]pyridin-3-yl)-1,2,4-triazin-5-yl]-N-(2,2,2-trifluoroethyl)-D-valinamide], for which the IC50 at JAK3 is ≤ 10 nM; at JAK2 it was 10 to 500 nM.

As to `CC(C)[C@@H](Nc1cnnc(-c2c[nH]c3ncc(C(N)=O)cc23)n1)C(=O)NCC(F)(F)F` [Example 1-18, 3-[5-({(1R)-2-methyl-1-[(2,2,2-trifluoroethyl)carbamoyl]propyl}amino)-1,2,4-triazin-3-yl]-1H-pyrrolo[2,3-b]pyridine-5-carboxamide], the IC50 is ≤ 10 nM on JAK3 and 10 to 500 nM at JAK2.

As for `O=C(NCC(F)(F)F)[C@H]1CCCC[C@H]1Nc1cnnc(-c2c[nH]c3ncc(Cl)cc23)n1` [Example 1-19, (1S,2R)-2-{[3-(5-chloro-1H-pyrrolo[2,3-b]pyridin-3-yl)-1,2,4-triazin-5-yl]amino}-N-(2,2,2-trifluoroethyl)cyclohexane-carboxamide], the IC50 at JAK3 and at JAK2 was 10 to 500 nM throughout.

For `COc1cnc2[nH]cc(-c3nncc(N[C@@H](C(=O)NCC(F)(F)F)C(C)C)n3)c2c1` [Example 1-20, N~2~-[3-(5-methoxy-1H-pyrrolo[2,3-b]pylidin-3-yl)-1,2,4-triazin-5-yl]-N-(2,2,2-trifluoroethyl)-D-valinamide], the IC50 at JAK3 is ≤ 10 nM; at JAK2, 10 to 500 nM.

On to `O=C(NCC(F)(F)F)[C@H]1CCCC[C@H]1Nc1cnnc(-c2c[nH]c3ncc(F)cc23)n1` [Example 1-21, (1S,2R)-2-{[3-(5-fluoro-1H-pyrrolo[2,3-b]pyridin-3-yl)-1,2,4-triazin-5-yl]amino}-N-(2,2,2-trifluoroethyl)cyclohexane-carboxamide], for which the figures for the IC50 on JAK3 and on JAK2 were 10 to 500 nM and > 500 nM, respectively.

For `N#Cc1cnc2[nH]cc(-c3nncc(N[C@@H]4CCCC[C@@H]4C(=O)NCC(F)(F)F)n3)c2c1` [Example 1-22, (1S,2R)-2-{[3-(5-cyano-1H-pyrrolo[2,3-b]pyridin-3-yl)-1,2,4-triazin-5-yl]amino}-N-(2,2,2-trifluoroethyl)cyclohexane-carboxamide], the IC50 at JAK3 and at JAK2 was 10 to 500 nM each time.

Regarding `NC(=O)c1cnc2[nH]cc(-c3nncc(N[C@@H]4CCCC[C@@H]4C(=O)NCC(F)(F)F)n3)c2c1` [Example 1-23, 3-[5-({(1R,2S)-2-[(2,2,2-trifluoroethyl)carbamoyl]cyclo-hexyl}amino)-1,2,4-triazin-3-yl]-1H-pyrrolo[2,3-b]pyridine-5-carboxamide], the IC50 at JAK3 and on JAK2 was 10 to 500 nM each time.

As to `C[C@@H](Nc1cnnc(-c2c[nH]c3ncc(Cl)cc23)c1)C(=O)NCC(F)(F)F` [Example 1-24, N~2~-[6-(5-chloro-1H-pyrrolo[2,3-b]pyridin-3-yl)pyridazin-4-yl]-N-(2,2,2-trifluoroethyl)-D-alaninamide], the values for the IC50 at JAK3 and at JAK2 were ≤ 10 nM and 10 to 500 nM, respectively.

As for `C[C@@H](Nc1cnnc(-c2c[nH]c3ncc(C(F)(F)F)cc23)c1)C(=O)NCC(F)(F)F` [Example 1-25, N-(2,2,2-trifluoroethyl)-N~2~-{6-[5-(trifluoromethyl)-1H-pyrrolo[2,3-b]pyridin-3-yl]pyridazin-4-yl}-D-alaninamide], the IC50 on JAK3 is ≤ 10 nM; at JAK2, 10 to 500 nM.

Turning to `Clc1cnc2[nH]cc(-c3cc(N4CCCC4c4nccs4)cnn3)c2c1` (stereo not shown) [Example 1-26, 5-chloro-3-{5-[2-(1,3-thiazol-2-yl)pyrrolidin-1-yl]pyridazin-3-yl}-1H-pyrrolo[2,3-b]pyridine], the IC50 on JAK3 and on JAK2 was 10 to 500 nM each time.

Consider `CC(C)(Nc1cncc(-c2c[nH]c3ncc(Cl)cc23)c1)C(=O)NCC(F)(F)F` [Example 1-27, N~2~-[5-(5-chloro-1H-pyrrolo[2,3-b]pyridin-3-yl)pyridin-3-yl]-2-methyl-N-(2,2,2-trifluoroethyl)alaninamide], for which the concentration for half-maximal inhibition (IC50) on JAK3 was ≤ 10 nM; on JAK2, 10 to 500 nM.

In the case of `Clc1cnc2[nH]cc(-c3cncc(N4CCCC4c4nccs4)c3)c2c1` (stereo not shown) [Example 1-28, 5-chloro-3-{5-[2-(1,3-thiazol-2-yl)pyrrolidin-1-yl]pyridin-3-yl}-1H-pyrrolo[2,3-b]pyridine], the results for the IC50 on JAK3 and at JAK2 were ≤ 10 nM and 10 to 500 nM, respectively.

Regarding `C[C@@H](Nc1cncc(-c2c[nH]c3ncc(Cl)cc23)c1)C(=O)NCC(F)(F)F` [Example 1-29, N~2~-[5-(5-chloro-1H-pyrrolo[2,3-b]pyridin-3-yl)pyridin-3-yl]-N-(2,2,2-trifluoroethyl)-D-alaninamide], the IC50 at JAK3 was ≤ 10 nM; at JAK2, 10 to 500 nM.
